In PubChem BioAssay AID248 (DTP/NCI, 2004):
Several values for one entry are separate records, joined by “and”; a condition that tells them apart may be missing. Equal values may be shown once. Toxic doses and inconclusive results are not listed.

Tested on: L1210 leukemia ip in BDF1 mice, survival T/C
Assay: NCI In Vivo Anticancer Drug Screen. Data for tumor model L1210 Leukemia (intraperitoneal) in B6D2F1 (BDF1) mice
Settings: endpoint: mean survival time, higher = longer survival
How it was run: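 Tumor cells were implanted, animals were treated, and survival was followed. The result divides the treated measurement by the vehicle-control measurement.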

[1] = dose: 100.0 mg/kg/injection, schedule: Q01DX001 (ip), vehicle: carboxymethylcellulose (CMC)
[2] = dose: 200.0 mg/kg/injection, schedule: Q01DX001 (ip), vehicle: carboxymethylcellulose (CMC)
[3] = dose: 400.0 mg/kg/injection, schedule: Q01DX001 (ip), vehicle: carboxymethylcellulose (CMC)
[4] = dose: 100.0 mg/kg/injection, schedule: Q01DX009 (ip), vehicle: Klucel (hydroxypropylcellulose) (HPC)
[5] = dose: 100.0 mg/kg/injection, schedule: Q04DX003 (ip), vehicle: Klucel (hydroxypropylcellulose) (HPC)
[6] = dose: 200.0 mg/kg/injection, schedule: Q01DX009 (ip), vehicle: Klucel (hydroxypropylcellulose) (HPC)
[7] = dose: 200.0 mg/kg/injection, schedule: Q04DX003 (ip), vehicle: Klucel (hydroxypropylcellulose) (HPC)
[8] = dose: 400.0 mg/kg/injection, schedule: Q01DX009 (ip), vehicle: Klucel (hydroxypropylcellulose) (HPC)
[9] = dose: 400.0 mg/kg/injection, schedule: Q04DX003 (ip), vehicle: Klucel (hydroxypropylcellulose) (HPC)
[10] = dose: 100.0 mg/kg/injection, schedule: Q01DX001 (ip), vehicle: saline
[11] = dose: 200.0 mg/kg/injection, schedule: Q01DX001 (ip), vehicle: saline
[12] = dose: 400.0 mg/kg/injection, schedule: Q01DX001 (ip), vehicle: saline
[13] = dose: 100.0 mg/kg/injection, schedule: Q01DX001 (ip), vehicle: other
[14] = dose: 200.0 mg/kg/injection, schedule: Q01DX001 (ip), vehicle: other
[15] = dose: 400.0 mg/kg/injection, schedule: Q01DX001 (ip), vehicle: other

Structure (SMILES): ClCCN(CCCl)c1ccc(/C=N/N2CCN(/N=C/c3ccc(N(CCCl)CCCl)cc3)CC2)cc1
- T/C [1]: 97 % of control
- T/C [2]: 92 % of control
- T/C [3]: 106 % of control

Structure (SMILES): N#C/C(=C(/C#N)c1ccccc1)c1ccccc1
- T/C (dose: 100.0 mg/kg/injection, schedule: Q01DX001 (ip), vehicle: saline with Tween-80): 95 % of control
- T/C (dose: 200.0 mg/kg/injection, schedule: Q01DX001 (ip), vehicle: saline with Tween-80): 93 % of control
- T/C (dose: 400.0 mg/kg/injection, schedule: Q01DX001 (ip), vehicle: saline with Tween-80): 91 % of control

Structure (SMILES): O=C(Nc1cc(C(F)(F)F)ccc1Cl)SCCSC(=O)Nc1cc(C(F)(F)F)ccc1Cl
- T/C [4]: 87 % of control
- T/C [5]: 102 % of control
- T/C [6]: 103 % of control
- T/C [7]: 100 % of control
- T/C [8]: 93 % of control
- T/C [9]: 97 % of control

Structure (SMILES): c1ccc(C2=NC(c3ccccc3)(C3(c4ccccc4)SCCCS3)CO2)cc1 (configuration not stated)
- T/C (dose: 75.0 mg/kg/injection, schedule: Q01DX009 (ip), vehicle: Klucel (hydroxypropylcellulose) (HPC)): 101 % of control
- T/C [5]: 102 % of control
- T/C (dose: 150.0 mg/kg/injection, schedule: Q01DX009 (ip), vehicle: Klucel (hydroxypropylcellulose) (HPC)): 98 % of control
- T/C [7]: 105 % of control
- T/C (dose: 300.0 mg/kg/injection, schedule: Q01DX009 (ip), vehicle: Klucel (hydroxypropylcellulose) (HPC)): 90 % of control
- T/C [9]: 102 % of control

Structure (SMILES): O=C1N(Cl)C2C(N1Cl)N(Cl)C(=O)N2Cl (configuration not stated)
- T/C (dose: 50.0 mg/kg/injection, schedule: Q01DX001 (ip), vehicle: carboxymethylcellulose (CMC)): 97 % of control
- T/C [1]: 97 % of control

Structure (SMILES): CCC[CH2][Sn]([S][Sn]([CH2]CCC)([c]1ccccc1)[c]1ccccc1)([c]1ccccc1)[c]1ccccc1
- T/C (dose: 100.0 mg/kg/injection, schedule: Q04DX002 (ip), vehicle: saline with Tween-80): 96 % of control
- T/C (dose: 200.0 mg/kg/injection, schedule: Q04DX002 (ip), vehicle: saline with Tween-80): 103 % of control

Structure (SMILES): CNC(=N)c1ccc(NC(=N)c2ccc(NC(=N)c3ccc(NC(=N)c4ccc(C(=N)NC)cc4)cc3)cc2)cc1
- T/C (dose: 4.4 mg/kg/injection, schedule: Q01DX015 (sc), vehicle: water): 102 % of control
- T/C (dose: 5.5 mg/kg/injection, schedule: Q01DX Z (ip), vehicle: water): 116 % of control
- T/C (dose: 6.7 mg/kg/injection, schedule: Q01DX015 (sc), vehicle: water): 107 % of control
- T/C (dose: 7.5 mg/kg/injection, schedule: Q01DX001 (ip), vehicle: water): 104 % of control
- T/C (dose: 10.0 mg/kg/injection, schedule: Q01DX015 (sc), vehicle: water): 112 % of control
- T/C (dose: 15.0 mg/kg/injection, schedule: Q01DX001 (ip), vehicle: water): 106 % of control
- T/C (dose: 16.0 mg/kg/injection, schedule: Q01DX015 (ip), vehicle: water): 216 % of control
- T/C (dose: 22.0 mg/kg/injection, schedule: Q01DX Z (ip), vehicle: water): 191 % of control
- T/C (dose: 22.5 mg/kg/injection, schedule: Q01DX015 (sc), vehicle: water): 184 % of control
- T/C (dose: 30.0 mg/kg/injection, schedule: Q01DX001 (ip), vehicle: water): 106 % of control
- T/C (dose: 44.0 mg/kg/injection, schedule: Q01DX Z (ip), vehicle: water): 100 % of control

Structure (SMILES): CC1CC(O)C([N+](=O)[O-])C(O)C1 (configuration not stated)
- T/C (dose: 12.5 mg/kg/injection, schedule: Q01DX009 (ip), vehicle: saline): 102 % of control

Structure (SMILES): O=C1OC(c2cccc3c(F)cccc23)c2ccccc21 (configuration not stated)
- T/C [4]: 96 % of control
- T/C [6]: 95 % of control
- T/C [8]: 93 % of control

Structure (SMILES): CCOC(=O)/C(C#N)=C\c1ccc(N(C)CCC#N)cc1
- T/C [4]: 100 % of control
- T/C [6]: 96 % of control
- T/C [8]: 94 % of control

Structure (SMILES): Cc1ccc(S(=O)(=O)c2ccc(C)c([N+](=O)[O-])c2)cc1[N+](=O)[O-]
- T/C (dose: 100.0 mg/kg/injection, schedule: Q01DX001 (ip), vehicle: Klucel (hydroxypropylcellulose) (HPC)): 104 % of control
- T/C (dose: 200.0 mg/kg/injection, schedule: Q01DX001 (ip), vehicle: Klucel (hydroxypropylcellulose) (HPC)): 118 % of control
- T/C (dose: 400.0 mg/kg/injection, schedule: Q01DX001 (ip), vehicle: Klucel (hydroxypropylcellulose) (HPC)): 96 % of control

Structure (SMILES): COc1ccc(N=NN(C)C(C)=O)cc1
- T/C (dose: 50.0 mg/kg/injection, schedule: Q01DX009 (ip), vehicle: Klucel (hydroxypropylcellulose) (HPC)): 102 % of control
- T/C (dose: 75.0 mg/kg/injection, schedule: Q01DX001 (ip), vehicle: Klucel (hydroxypropylcellulose) (HPC)): 101 % of control
- T/C [4]: 103 % of control
- T/C (dose: 150.0 mg/kg/injection, schedule: Q01DX001 (ip), vehicle: Klucel (hydroxypropylcellulose) (HPC)): 93 % of control
- T/C [6]: 100 % of control
- T/C (dose: 300.0 mg/kg/injection, schedule: Q01DX001 (ip), vehicle: Klucel (hydroxypropylcellulose) (HPC)): 96 % of control

Structure (SMILES): Cc1ccc(C)c(SC2CCCCC2=O)c1 (configuration not stated)
- T/C [10]: 94 % of control
- T/C [11]: 101 % of control
- T/C [12]: 97 % of control

Structure (SMILES): CC(C)(C)C(=O)/C=C(\C=S(C)(C)=O)c1ccccc1
- T/C (dose: 25.0 mg/kg/injection, schedule: Q04DX003 (ip), vehicle: saline): 105 % of control
- T/C (dose: 50.0 mg/kg/injection, schedule: Q04DX003 (ip), vehicle: saline): 97 % of control
- T/C (dose: 100.0 mg/kg/injection, schedule: Q04DX003 (ip), vehicle: saline): 100 % of control

Structure (SMILES): Cc1c(C(=O)O)sc2ccc([N+](=O)[O-])cc12
- T/C [1]: 97 % of control
- T/C [2]: 95 % of control
- T/C [3]: 92 % of control

Structure (SMILES): Oc1[nH]c(=S)sc1/C=C1\C=NN=N1
- T/C [13]: 108 % of control
- T/C [14]: 97 % of control
- T/C [15]: 101 % of control

Structure (SMILES): COC(=O)c1ccc(OC(=O)Nc2ccccc2F)cc1
- T/C (dose: 25.0 mg/kg/injection, schedule: Q01DX009 (ip), vehicle: saline with Tween-80): 106 % of control
- T/C (dose: 50.0 mg/kg/injection, schedule: Q01DX009 (ip), vehicle: saline with Tween-80): 119 % of control
- T/C (dose: 100.0 mg/kg/injection, schedule: Q01DX009 (ip), vehicle: saline with Tween-80): 95 % of control and 108 % of control

Structure (SMILES): CC(=O)Nc1c(Br)cc2c(c1Br)C(=O)c1cc(Br)ccc1-2
- T/C [1]: 100 % of control
- T/C [2]: 100 % of control
- T/C [3]: 100 % of control

Structure (SMILES): N#CC(Cc1ccccc1Cl)(Cc1ccccc1Cl)c1ccccc1
- T/C [4]: 110 % of control
- T/C [5]: 108 % of control
- T/C [6]: 105 % of control
- T/C [7]: 94 % of control
- T/C [8]: 105 % of control
- T/C [9]: 108 % of control

Structure (SMILES): CC(=O)Nc1ccc(OCCCOc2ccc([N+](=O)[O-])cc2)cc1
- T/C [5]: 101 % of control
- T/C [7]: 95 % of control
- T/C [9]: 91 % of control

Structure (SMILES): COC(=O)Cc1ccc2c(c1)OCO2
- T/C [10]: 97 % of control
- T/C [11]: 101 % of control
- T/C [12]: 103 % of control

Structure (SMILES): O=C(CCCC(=O)N/N=C/c1ccccc1Cl)N/N=C\c1ccccc1Cl
- T/C (dose: 50.0 mg/kg/injection, schedule: Q01DX001 (ip), vehicle: saline): 103 % of control
- T/C [10]: 100 % of control
- T/C [11]: 110 % of control
- T/C [12]: 110 % of control

Structure (SMILES): Cc1ccc(C(=O)NN2C(N)=NC(N)=NC2(C)C)cc1
- T/C (dose: 100.0 mg/kg/injection, schedule: Q01DX009 (ip), vehicle: saline sonified): 111 % of control
- T/C (dose: 200.0 mg/kg/injection, schedule: Q01DX009 (ip), vehicle: saline sonified): 92 % of control

Structure (SMILES): N#CCCCCCCCCC(=O)OCCC#N
- T/C [13]: 95 % of control
- T/C [14]: 98 % of control
- T/C [15]: 97 % of control

Structure (SMILES): COc1cc(C(=O)O)c2c(c1C)OC(=O)c1c(C)cc(O)c(C=O)c1O2
- T/C (dose: 8.0 mg/kg/injection, schedule: Q01DX Z (ip), vehicle: saline): 91 % of control
- T/C (dose: 16.0 mg/kg/injection, schedule: Q01DX Z (ip), vehicle: saline): 102 % of control
- T/C (dose: 32.0 mg/kg/injection, schedule: Q01DX Z (ip), vehicle: saline): 100 % of control
- T/C (dose: 40.0 mg/kg/injection, schedule: Q04DX003 (ip), vehicle: Klucel (hydroxypropylcellulose) (HPC)): 97 % of control
- T/C (dose: 64.0 mg/kg/injection, schedule: Q01DX Z (ip), vehicle: saline): 111 % of control
- T/C (dose: 80.0 mg/kg/injection, schedule: Q04DX003 (ip), vehicle: Klucel (hydroxypropylcellulose) (HPC)): 107 % of control
- T/C (dose: 160.0 mg/kg/injection, schedule: Q04DX003 (ip), vehicle: Klucel (hydroxypropylcellulose) (HPC)): 107 % of control

Structure (SMILES): c1cc[c]([Sb]([c]2ccccc2)[n]2ccnc2)cc1
- T/C (dose: 5.0 mg/kg/injection, schedule: Q04DX002 (ip), vehicle: saline with Tween-80): 97 % of control
- T/C (dose: 10.0 mg/kg/injection, schedule: Q04DX002 (ip), vehicle: saline with Tween-80): 97 % of control
